{"source": "patent US11371055B2", "about": "“Herbicide resistance genes” (CORTEVA AGRISCIENCE LLC, priority 2005, dated 2022)", "key": {"[1]": {"tested_on": "AAD-12 (v1) event pDAB4101[20] T1 rice", "assay": "Field tolerance of rice, AAD-12 event", "assay_type": "in vivo, Oryza sativa", "conditions": "for visual injury: 7 or 15DAT; for % Visual injury 7DAT / % Visual injury 15DAT: AAD-12 event pDAB4101[20]", "procedure": "(§1) A field level tolerance trial was conducted with AAD-12 (v1) event pDAB4101[20] and one wild-type rice (Clearfield 131) at Wayside, Miss. (a non-transgenic imidazolinone-resistant variety). The experimental design was a randomized complete block design with a single replication. […] Within each herbicide treatment, two rows of T1 generation pDAB4101[20] and two rows of Clearfield rice were planted using a small plot drill with 8-inch row spacing. The pDAB4101[20] rice contained the AHAS gene as a selectable marker for the AAD-12(v1) gene. Imazethapyr was applied at the one leaf stage as selection agent to remove any AAD-12 (v1) null plants from the plots. Herbicide treatments were applied when the rice reached the 2 leaf stage using compressed air backpack sprayer delivering 187 L/ha carrier volume at 130-200 kpa pressure. […]"}, "[2]": {"tested_on": "wild-type rice (Clearfield 131)", "assay": "Field tolerance of rice, wild-type", "assay_type": "in vivo, Oryza sativa", "conditions": "for % Visual injury 7DAT / % Visual injury 15DAT: Wild-type Clearfield", "procedure": "as §1"}, "[3]": {"tested_on": "PAT/Cry1F-transformed Arabidopsis (auxin-sensitive transformed control)", "assay": "T1 Arabidopsis postemergence herbicide dose response, transformed control", "assay_type": "in vivo, Arabidopsis thaliana", "procedure": "Seven days after planting (DAP) and again 11 DAP, T1 plants (cotyledon and 2-4-lf stage, respectively) were sprayed with a 0.2% solution of Liberty herbicide (200 g ai/L glufosinate, Bayer Crop Sciences, Kansas City, Mo.) at a spray volume of 10 ml/tray (703 L/ha) using a DeVilbiss compressed air spray tip to deliver an effective rate of 280 g ai/ha glufosinate per application. Survivors (plants actively growing) were identified 4-7 days after the final spraying and transplanted individually into 3-inch pots prepared with potting media (Metro Mix 360). Transplanted plants were covered with humidity domes for 3-4 days and placed in a 22° C. growth chamber as before or moved to directly to the greenhouse. Domes were subsequently removed and plants reared in the greenhouse (22±5° C., 50±30% RH, 14 h light:10 dark, minimum 500 μE/m^2 s^1 natural+supplemental light) at least 1 day prior to testing for the ability of AAD-12 (v1) (plant optimized gene) to provide phenoxy auxin herbicide resistance.\nT1 plants were then randomly assigned to various rates of 2,4-D. For Arabidopsis, 50 g ae/ha 2,4-D is an effective dose to distinguish sensitive plants from ones with meaningful levels of resistance. Elevated rates were also applied to determine relative levels of resistance (50, 200, 800, or 3200 g ac/ha). Tables 10 and 11 show comparisons drawn to an aryloxyalkanoate herbicide resistance gene (AAD-1 (v3)) previously described in PCT/US2005/014737.\nAll auxin herbicide applications were made using the DeVilbiss sprayer as described above to apply 703 L/ha spray volume (0.4 ml solution/3-inch pot) or applied by track sprayer in a 187 L/ha spray volume. 2,4-D used was either technical grade (Sigma, St. Louis, Mo.) dissolved in DMSO and diluted in water (<1% DMSO final concentration) or the commercial dimethylamine salt formulation (456 g ac/L, NuFarm, St Joseph, Mo.). Dichlorprop used was commercial grade formulated as potassium salt of R-dichlorprop (600 g ai/L, AH Marks). As herbicide rates increased beyond 800 g ae/ha, the pH of the spray solution became exceedingly acidic, burning the leaves of young, tender Arabidopsis plants and complicating evaluation of the primary effects of the herbicides. It became standard practice to apply these high rates of herbicides in 200 mM HEPES buffer, pH 7.5.\nThe first Arabidopsis transformations were conducted using AAD-12 (v1) (plant optimized gene). T1 transformants were first selected from the background of untransformed seed using a glufosinate selection scheme. Over 300,000 T1 seed were screened and 316 glufosinate resistant plants were identified (PAT gene), equating to a transformation/selection frequency of 0.10% which lies in the normal range of selection frequency of constructs where PAT+Liberty are used for selection. T1 plants selected above were subsequently transplanted to individual pots and sprayed with various rates of commercial aryloxyalkanoate herbicides. Table 11 compares the response of AAD-12 (v1) and control genes to impart 2,4-D resistance to Arabidopsis T1 transformants. Response is presented in terms of % visual injury 2 WAT. […] Since each T1 is an independent transformation event, one can expect significant variation of individual T1 responses within a given rate. An arithmetic mean and standard deviation is presented for each treatment. The range in individual response is also indicated in the last column for each rate and transformation. PAT/Cry1F-transformed Arabidopsis served as an auxin-sensitive transformed control. The AAD-12 (v1) gene imparted herbicide resistance to individual T1 Arabidopsis plants. Within a given treatment, the level of plant response varied greatly and can be attributed to the fact each plant represents an independent transformation event. Of important note, at each 2,4-D rate tested, there were individuals that were unaffected while some were severely affected. […]"}, "[4]": {"conditions": "50 g ae/ha 2,4-D postemergence, 2 WAT"}, "[5]": {"conditions": "200 g ae/ha 2,4-D postemergence, 2 WAT"}, "[6]": {"conditions": "800 g ae/ha 2,4-D postemergence, 2 WAT"}, "[7]": {"conditions": "3200 g ae/ha 2,4-D postemergence, 2 WAT"}, "[8]": {"conditions": "50 g ae/ha R-dichlorprop postemergence"}, "[9]": {"conditions": "200 g ae/ha R-dichlorprop postemergence"}, "[10]": {"conditions": "800 g ae/ha R-dichlorprop postemergence"}, "[11]": {"conditions": "3200 g ae/ha R-dichlorprop postemergence"}}, "data": [{"compound": "O=C(O)COc1ccc(Cl)cc1Cl", "note": "[2,4-D, 2,4-dichlorophenoxyacetic acid]", "values": [{"measurement": "visual injury", "setting": "[1]; 2,4-D at 2240 g ae/ha", "value": "no injury"}, {"measurement": "% Visual injury 7DAT", "setting": "[1]; 2240 GM AE/HA", "value": 0, "unit": "%"}, {"measurement": "% Visual injury 15DAT", "setting": "[1]; 2240 GM AE/HA", "value": 0, "unit": "%"}, {"measurement": "visual injury", "setting": "[2]; 2,4-D at 2240 g ae/ha, 7DAT", "value": 30, "unit": "%"}, {"measurement": "visual injury", "setting": "[2]; 2,4-D at 2240 g ae/ha, 15DAT", "value": 35, "unit": "%"}, {"measurement": "% Visual injury 7DAT", "setting": "[2]; 2240 GM AE/HA", "value": 15, "unit": "%"}, {"measurement": "% Visual injury 15DAT", "setting": "[2]; 2240 GM AE/HA", "value": 35, "unit": "%"}, {"measurement": "% Injury 20-40% (number of individuals)", "setting": "[3]; [4]", "value": 1}, {"measurement": "% Injury <20% (number of individuals)", "setting": "[3]; [4]", "value": 4}, {"measurement": "% Injury >40% (number of individuals)", "setting": "[3]; [4]", "value": 5}, {"measurement": "% Injury Ave", "setting": "[3]; [4]", "value": 31, "unit": "%"}, {"measurement": "% Injury 20-40% (number of individuals)", "setting": "[3]; [5]", "value": 0}, {"measurement": "% Injury <20% (number of individuals)", "setting": "[3]; [5]", "value": 0}, {"measurement": "% Injury >40% (number of individuals)", "setting": "[3]; [5]", "value": 10}, {"measurement": "% Injury Ave", "setting": "[3]; [5]", "value": 70, "unit": "%"}, {"measurement": "% Injury 20-40% (number of individuals)", "setting": "[3]; [6]", "value": 0}, {"measurement": "% Injury <20% (number of individuals)", "setting": "[3]; [6]", "value": 0}, {"measurement": "% Injury >40% (number of individuals)", "setting": "[3]; [6]", "value": 10}, {"measurement": "% Injury Ave", "setting": "[3]; [6]", "value": 81, "unit": "%"}, {"measurement": "% Injury 20-40% (number of individuals)", "setting": "[3]; [7]", "value": 0}, {"measurement": "% Injury <20% (number of individuals)", "setting": "[3]; [7]", "value": 0}, {"measurement": "% Injury >40% (number of individuals)", "setting": "[3]; [7]", "value": 10}, {"measurement": "% Injury Ave", "setting": "[3]; [7]", "value": 91, "unit": "%"}]}, {"compound": "C[C@@H](Oc1ccc(Cl)cc1Cl)C(=O)O", "note": "[(R)-dichlorprop, R-2,4-dichlorophenoxypropionic acid]", "values": [{"measurement": "% Injury 20-40% (number of individuals)", "setting": "[3]; [8]", "value": 10}, {"measurement": "% Injury <20% (number of individuals)", "setting": "[3]; [8]", "value": 0}, {"measurement": "% Injury >40% (number of individuals)", "setting": "[3]; [8]", "value": 0}, {"measurement": "% Injury Ave", "setting": "[3]; [8]", "value": 27, "unit": "%"}, {"measurement": "% Injury 20-40% (number of individuals)", "setting": "[3]; [9]", "value": 0}, {"measurement": "% Injury <20% (number of individuals)", "setting": "[3]; [9]", "value": 0}, {"measurement": "% Injury >40% (number of individuals)", "setting": "[3]; [9]", "value": 10}, {"measurement": "% Injury Ave", "setting": "[3]; [9]", "value": 69, "unit": "%"}, {"measurement": "% Injury 20-40% (number of individuals)", "setting": "[3]; [10]", "value": 0}, {"measurement": "% Injury <20% (number of individuals)", "setting": "[3]; [10]", "value": 0}, {"measurement": "% Injury >40% (number of individuals)", "setting": "[3]; [10]", "value": 10}, {"measurement": "% Injury Ave", "setting": "[3]; [10]", "value": 83, "unit": "%"}, {"measurement": "% Injury 20-40% (number of individuals)", "setting": "[3]; [11]", "value": 0}, {"measurement": "% Injury <20% (number of individuals)", "setting": "[3]; [11]", "value": 0}, {"measurement": "% Injury >40% (number of individuals)", "setting": "[3]; [11]", "value": 10}, {"measurement": "% Injury Ave", "setting": "[3]; [11]", "value": 90, "unit": "%"}]}, {"compound": "O=C(O)COc1nc(Cl)c(Cl)cc1Cl", "note": "[triclopyr]", "values": [{"measurement": "visual injury", "setting": "[1]; 2× rate of triclopyr (560 g ae/ha)", "value": "no injury"}, {"measurement": "% Visual injury 7DAT", "setting": "[1]; 840 GM AE/HA", "value": 0, "unit": "%"}, {"measurement": "% Visual injury 15DAT", "setting": "[1]; 840 GM AE/HA", "value": 0, "unit": "%"}, {"measurement": "visual injury", "setting": "[2]; 2× rate of triclopyr (560 g ae/ha), 7DAT", "value": 15, "unit": "%"}, {"measurement": "visual injury", "setting": "[2]; 2× rate of triclopyr (560 g ae/ha), 15DAT", "value": 25, "unit": "%"}, {"measurement": "% Visual injury 7DAT", "setting": "[2]; 840 GM AE/HA", "value": 30, "unit": "%"}, {"measurement": "% Visual injury 15DAT", "setting": "[2]; 840 GM AE/HA", "value": 25, "unit": "%"}]}]}
